Twelve molecules from patent publication US8440701B2, “Trisubstituted 1,2,4 triazoles” (Janssen Pharmaceutica NV, priority 2007, dated 2013) can be followed below.

The target of data set [1] is T1, hα7-wt nAChR (Homo sapiens, UniProt P36544).
T1 construct: expressed in transfected cells; host or cells: GH4C1 cells (recombinant, stably over-expressing)
The data set is described as follows: Ca2+ flux imaging (FDSS), potentiation of choline response. The format is cell-based. Particulars: for EC50: hα7-wt nAChR-expressing GH4C1 cells, potentiation of 100 μM choline, compounds 0.01 μM to 30 μM; for Emax: GH4-C1, maximal effect, efficacy of 100 μM choline defined as 100% in the absence of a PAM, GH4C1 cells. As for the experimental part:
Ca^2+ Flux Imaging (FDSS)
• Hanks buffered saline solution (HBSS, Invitrogen, Belgium), supplemented with 10 mM HEPES (Invitrogen, Belgium), CaCl2 to a final concentration of 5 mM, 0.1% Bovine serum albumin (Sigma-Aldrich NV, Belgium). b) Calcium-Sensitive Dye—Fluo-4AM • Fluo-4AM (Molecular Probes, USA) was dissolved in DMSO containing 10% Pluronic acid (Molecular Probes, USA) to give a stock solution which was diluted in assay buffer supplemented with 5 mM probenicid (Sigma, Aldrich NV, Belgium) to give a final concentration of 2 μM. c) 384-Well Plates • Black 384 well plate black/clear plates, PDL pre-coated (Corning, Incorporated, USA) d) Calcium Flux Measurement • A Functional drug screening system (FDSS, Hamamatsu) was used to measure intracellular free-calcium flux signals. Method
Monolayers of hα7-wt nAChR-expressing GH4C1 cells were grown in multi-well plates, in particular black-sided, transparent bottomed 384 well plates coated with poly-D-lysine for 24 hours prior to loading with a fluorescent calcium indicator, in a particular embodiment loading with fluo-4AM for up to 120 minutes.
PAM activity was detected in real time by applying the compound to be tested to the loaded cells along with a α7 nicotinic receptor agonist during constant monitoring of the cellular calcium mobilization by fluorescence in a FDSS. Compounds giving peak fluorescent responses greater than the response due to agonist alone, were considered to be α7 nAChR PAM's. In a particular embodiment, the α7 nicotinic receptor agonist was choline, a more particular embodiment choline applied at a sub-maximal concentration of 100 μM. In a further setting of the present invention the compounds to be tested were applied prior to the α7 nicotinic receptor agonist, in a particular embodiment up to 10 minutes prior to the agonist.
A control response to choline was calculated on each plate from the difference in peak in fluorescence in wells receiving either choline or assay buffer alone. Compounds of the present invention were tested at a concentration range from 0.01 μM to 30 μM. Compounds were considered to have an interesting activity when they potentiated the choline signal at least with 200% when tested at a concentration of 30 μM (the efficacy of 100 μM choline was defined as 100% in the absence of a PAM).
EC50 values (potency), maximal effect (% efficacy), and Hill slopes were estimated by fitting the sigmoidal equation to the data using GraphPad Prism (GraphPad Software, Inc., San Diego, Calif.). An EC50 (or pEC50) was determined as a concentration relating to half the maximal effect, when a clear sigmoidal curve with top plateau was obtained.

The target of data set [2] is T1, hα7-wt nAChR. In words: Whole-cell voltage-clamp recording, PAM type classification. The format is cell-based. More on the design: key: Type 1 compounds enhance the effect size of the current elicited by 1 mM choline but minimally alter the kinetics of the receptor.; Type 2 compounds enhance the effect size of the current elicited by 1 mM choline while reducing the rate and/or the extent of desensitization.; Type 3 compounds enhance the effect size of the current elicited by 1 mM choline. When tested at higher concentrations up to 10 μM they completely inhibit desensitization, in particular a 1 mM choline application of 250 milliseconds.; Type 4 compounds allow for an initial desensitization of the receptor followed by a re-opening of the receptor during agonist application. Particulars: qualitative kinetic properties; 1 mM choline; hα7-wt nAChR-expressing GH4C1 cells. As for the experimental part:
The compounds of the present invention are classified as type 1-4, based on qualitative kinetic properties, as determined by whole-cell voltage-clamp recordings. This classification is based on the effect of an α7 PAM compound, as described hereinbefore, on the signal elicited by an agonist application. In particular, said agonist is choline at a concentration of 1 mM. In a preferred experimental setting, said α7 PAM compound and choline are simultaneously applied to the cell, as described hereinafter. Desensitization is defined as the closure of the receptor upon activation during the application of the agonist in whole-cell voltage-clamp electrophysiology measurements seen as the reduction of the […] current after initial activation by the agonist.
The definition of the PAM types 1-4 is described hereinafter: • Type 1 compounds enhance the effect size of the current elicited by 1 mM choline but minimally alter the kinetics of the receptor. In particular, the rate and the extent of desensitization, elicited by the agonist, is not affected. The compound-modulated response to 1 mM choline, therefore, is a close to linear scaling of the 1 mM choline response in absence of the α7 PAM compound. • Type 2 compounds enhance the effect size of the current elicited by 1 mM choline while reducing the rate and/or the extent of desensitization. • Type 3 compounds enhance the effect size of the current elicited by 1 mM choline. […] At low-potency concentrations of the α7 PAM compound, the agonist-induced activation, which is followed by desensitization, can still be separated from the compound-induced re-opening as an initial inward current-maximum. At higher potency concentrations of the α7 PAM compound, the re-opening occurs faster than the closure due to desensitization so that the initial current-maximum disappears.
The compounds of the present invention also have a potentiating effect on the response to choline when measured by whole-cell voltage-clamp electrophysiology in GH4C1 cells stably over-expressing the human wild-type α7 receptor, as described hereinafter.
Whole-Cell Voltage-Clamp Recording
Whole-cell voltage-clamp recording from mammalian cells has provided a powerful means of assessing the function of membrane proteins thought to be subunits of ligand-gated ion channels. Activation of such proteins by endogenous or exogenous ligands causes opening of a pore associated with the receptor through which ions flow down their electrochemical gradient. In the case of the hα7-wt nAChR-expressing GH4C1 recombinant cell line the preferential permeability to calcium of this receptor means that calcium flows into the cell upon activation by ACh, choline and other nicotinic ligands giving rise to a calcium current. Since this receptor rapidly desensitizes in the presence of an agonist it is important that an application system is used which is capable of very rapid switching of solutions (<100 ms) to prevent partial or full desensitisation of receptor responses coincident with the time of agonist application. Consequently, a second convenient technique to assess the enhancement of nicotinic efficacy is whole-cell voltage-clamp recording from hα7-wt nAChR-expressing GH4C1 cells coupled with a rapid-application system.
• The external recording solution consisted of 152 mM NaCl, 5 mM KCl, 1 mM MgCl2, 1 mM Calcium, 10 mM HEPES; pH 7.3. The internal recording solution consisted of 140 mM CsCl, 10 mM HEPES, 10 mM EGTA, 1 mM MgCl2, pH 7.3. • b) Patch-clamp recording was carried out using a Patch-clamp amplifier (Multiclamp 700A, Axon Instruments, CA, USA). The membrane potential of hα7-wt nAChR-expressing GH4C1 cells was voltage-clamped in the whole cell configuration (Hamill et al, 1981) with a borosilicate glass electrode of 1.5-3 MΩ tip resistance when filled with the internal recording solution. […]

T1 sequence (P36544 23-502): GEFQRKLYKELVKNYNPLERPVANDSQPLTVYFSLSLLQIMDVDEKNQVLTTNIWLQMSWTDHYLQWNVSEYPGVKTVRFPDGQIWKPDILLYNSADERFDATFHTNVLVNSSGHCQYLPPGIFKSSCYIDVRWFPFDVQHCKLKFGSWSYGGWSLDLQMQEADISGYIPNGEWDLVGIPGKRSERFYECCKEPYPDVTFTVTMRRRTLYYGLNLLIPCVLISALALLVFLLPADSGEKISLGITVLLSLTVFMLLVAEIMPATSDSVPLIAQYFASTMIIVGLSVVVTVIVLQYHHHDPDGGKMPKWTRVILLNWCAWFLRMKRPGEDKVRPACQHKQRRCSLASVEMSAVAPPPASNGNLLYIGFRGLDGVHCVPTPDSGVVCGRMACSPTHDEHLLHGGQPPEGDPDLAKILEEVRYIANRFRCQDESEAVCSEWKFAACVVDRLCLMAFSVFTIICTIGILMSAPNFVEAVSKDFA

Turning to `CCCC(O)Cn1nc(Nc2cccc(Cl)c2)nc1-c1cc(C)nc(C)c1` (single isomer, unassigned) [Compound E23], the melting point turned out to be 127.44 °C. The EC50 in data set [1] was 891 nM. In data set [2], the PAM_type amounted to 1.
On to `CCC(O)Cn1nc(Nc2ccc(F)c(F)c2)nc1-c1ccnc(C)c1` (single isomer, unassigned) [Compound E26], for which the melting point was 145.29 °C. Also, in data set [1], the maximal effect (Emax) stood at 580% and the EC50 is 776 nM. For the same molecule, in data set [2], the PAM_type was 1.
Take `CCC(O)Cn1nc(Nc2cc(OC)cc(C(F)(F)F)c2)nc1-c1ccnc(C)c1` (single isomer, unassigned) [Compound E28]: the melting point was found to be 117.16 °C. Moreover, the EC50 in data set [1] is 1780 nM. Also, in data set [2], the PAM_type is 2.
For `CCCCC(O)Cn1nc(Nc2ccc(F)c(F)c2)nc1-c1cc(C)nc(C)c1` (single isomer, unassigned; (+)) [Compound E5, (+)-1-[3-(3,4-Difluoro-phenylamino)-5-(2,6-dimethyl-pyridin-4-yl)-[1,2,4]triazol-1-yl]-hexan-2-ol], in that order: 135 °C, 204 nM and 2.
The corresponding values for `CC[C@H](O)Cn1nc(Nc2ccc(F)c(F)c2)nc1-c1cc(C)nc(C)c1` [Compound E1, (S)-1-[3-(3,4-Difluoro-phenylamino)-5-(2,6-dimethyl-pyridin-4-yl)-[1,2,4]triazol-1-yl]-butan-2-ol] are 166.04 °C, 589 nM and 2.
In the case of `CCNc1cc(-c2nc(Nc3cccc(Cl)c3)nn2C[C@@H](O)CC)ccn1` [Compound E2, (S)-1-[3-(3-Chloro-phenylamino)-5-(2-ethylamino-pyridin-4-yl)-[1,2,4]triazol-1-yl]-butan-2-ol], the melting point came out at 161.99 °C. Further, the EC50 in data set [1] was 355 nM. Also, the PAM_type in data set [2] stood at 2.
With `CCC(O)Cn1nc(Nc2ccc(F)c(F)c2)nc1-c1ccnc(NCCOC)c1` (centres unmarked) [Compound E9], the melting point amounted to 137.06 °C. Also, in data set [1], the Emax was found to be 1000% and the 50% effective concentration (EC50) was 933 nM. Besides, the PAM_type in data set [2] is on record as 2.
On to `CCC(O)Cn1nc(Nc2cccc(Cl)c2)nc1-c1ccnc(C)c1` (centres unmarked) [Compound E17], for which the melting point worked out at 144.31 °C. The EC50 in data set [1] is 1200 nM. Besides, the PAM_type in data set [2] worked out at 2.
`CC[C@H](O)Cn1nc(Nc2ccc(F)c(C)c2)nc1-c1ccnc(C)c1` [Compound E19, (S)-1-[3-(4-Fluoro-3-methyl-phenylamino)-5-(2-methyl-pyridin-4-yl)-[1,2,4]triazol-1-yl]-butan-2-ol] registered a melting point of 133.85 °C. For the same molecule, in data set [1], the EC50 was 1950 nM. Further, the PAM_type in data set [2] came to 2.
For `CCNc1cc(-c2nc(Nc3ccc(F)c(F)c3)nn2CC(O)CC)ccn1` (centres unmarked) [Compound E25], in that order: 156.18 °C, 692 nM and 1.
For `CCNc1cc(-c2nc(Nc3cccc(Cl)c3)nn2C[C@H](O)CC)ccn1` [Compound E29, (R)-1-[3-(3-chloro-phenylamino)-5-(2-ethylamino-pyridin-4-yl)-[1,2,4]triazol-1-yl]-butan-2-ol], in that order: 158.66 °C, 1020 nM and 1.
As for `CC[C@H](O)Cn1nc(Nc2cc(OC)cc(C(F)(F)F)c2)nc1-c1cc(C)nc(C)c1` [Compound E30, (S)-1-[5-(2,6-Dimethyl-pyridin-4-yl)-3-(3-methoxy-5-trifluoromethyl-phenylamino)-[1,2,4]triazol-1-yl]-butan-2-ol], the melting point was determined as 166.05 °C. The EC50 in data set [1] is 200 nM. In data set [2], the PAM_type is on record as 2.
